US11161856B2 (H. Lundbeck A/S, priority 2017, dated 2021)

Assays:
Type in all cases: biochemical
MGLL = target: T1, MGLL (Mus musculus, UniProt O35678); assay: In vitro competitive activity-based protein profiling, mouse brain proteome (MGLL); conditions: concentration not given (μM)
T1 construct: Brain; from tissue; host or cells: mouse brain proteome
T1 sequence (O35678 1-303): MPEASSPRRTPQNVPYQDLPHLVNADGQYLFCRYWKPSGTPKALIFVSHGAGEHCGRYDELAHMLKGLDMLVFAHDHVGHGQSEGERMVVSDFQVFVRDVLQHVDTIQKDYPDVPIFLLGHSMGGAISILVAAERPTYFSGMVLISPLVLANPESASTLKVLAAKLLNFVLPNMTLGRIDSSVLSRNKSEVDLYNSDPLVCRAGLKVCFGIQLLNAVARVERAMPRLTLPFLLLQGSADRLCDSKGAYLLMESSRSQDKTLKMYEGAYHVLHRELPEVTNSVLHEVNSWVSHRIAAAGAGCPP

ABHD6 = target: T2, ABHD6 (Mus musculus, UniProt Q8R2Y0); assay: In vitro competitive activity-based protein profiling, mouse brain proteome (ABHD6); conditions: mouse brain proteome; concentration not given (μM)
T2 construct: Brain; from tissue; host or cells: mouse brain proteome
T2 sequence (Q8R2Y0 1-336): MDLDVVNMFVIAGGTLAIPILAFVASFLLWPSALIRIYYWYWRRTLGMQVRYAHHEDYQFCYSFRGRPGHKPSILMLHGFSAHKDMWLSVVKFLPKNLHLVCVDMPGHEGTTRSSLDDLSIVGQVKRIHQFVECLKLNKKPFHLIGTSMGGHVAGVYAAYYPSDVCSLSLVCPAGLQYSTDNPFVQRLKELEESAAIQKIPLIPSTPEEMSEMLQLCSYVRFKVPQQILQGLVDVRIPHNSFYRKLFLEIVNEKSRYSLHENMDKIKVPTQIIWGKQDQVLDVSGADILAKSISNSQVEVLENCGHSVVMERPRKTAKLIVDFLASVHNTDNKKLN
Procedure: [The source words this procedure for another target and reports this target under the same test.] (§1) In Vitro Competitive Activity-Based Protein Profiling.
(§2) Proteomes (human prefrontal cortex or cell membrane fractions) (50 μL, 1.0 mg/mL total protein concentration) were preincubated with varying concentrations of inhibitors at 37° C. After 30 min, FP-Rh or HT-01 (1.0 μL, 50 μM in DMSO) was added and the mixture was incubated for another 30 min at room temperature. Reactions were quenched with SDS loading buffer (15 μL-4×) and run on SDS-PAGE.

MAGL = target: T3, MAGL (Homo sapiens, UniProt Q99685); assay: In vitro competitive activity-based protein profiling (FP-Rh or HT-01 probe, gel-based); design: IC50 MGLL PC3 (Human, μM) / IC50 MGLL PFC (Human, μM): scale not given here; conditions: for % Inh MGLL PFC (Human, μM) / % Inh MGLL PC3 (Human, μM): concentration not given (μM)
T3 construct: Proteomes (human prefrontal cortex or cell membrane fractions); from tissue
T3 sequence (Q99685 1-303): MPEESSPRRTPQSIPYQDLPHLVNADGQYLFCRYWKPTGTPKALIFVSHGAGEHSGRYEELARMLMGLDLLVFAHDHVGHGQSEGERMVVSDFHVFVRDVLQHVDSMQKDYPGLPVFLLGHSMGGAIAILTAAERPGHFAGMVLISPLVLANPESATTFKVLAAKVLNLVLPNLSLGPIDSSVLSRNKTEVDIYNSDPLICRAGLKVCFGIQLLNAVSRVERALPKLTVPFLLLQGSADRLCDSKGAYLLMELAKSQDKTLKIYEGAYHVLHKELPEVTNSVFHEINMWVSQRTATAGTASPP
Procedure: as §1, §2

[1] = prefrontal cortex (PFC) proteome

Structure (SMILES)	% Inh MGLL Brain (Mouse, μM) (MGLL)	% Inh ABHD6 Brain (Mouse, μM) (ABHD6)	% Inh MGLL PFC (Human, μM) (MAGL; [1])	IC50 MGLL PC3 (Human, μM) (MAGL; PC3 cell proteome)	% Inh MGLL PC3 (Human, μM) (MAGL; PC3 cell proteome)	IC50 MGLL PFC (Human, μM) (MAGL; [1])	IC50 (MAGL; PC3 cell proteome, read-out: IC50 MGLL PC3 (Human)) [nM]
O=C(O)C1CCN(c2cc(S(F)(F)(F)(F)F)ccc2CN2CCC3(CC2)CCN(C(=O)OC(C(F)(F)F)C(F)(F)F)C3)CC1 [Example 222, l-(2-((2-(((1,1,1,3,3,3-Hexafluoropropan-2-yl)oxy)carbonyl)-2,8-diazaspiro[4.5]decan-8-yl)methyl)-5-(pentafluoro-16-sulfaneyl)phenyl)piperidine-4-carboxylic acid]	### (### is ≥75%)	## (## is between 25 and 75%)	### (### is ≥75%)				
CN(Cc1cc(N2CCOC(C)(C(=O)O)C2)cc(C(F)(F)F)c1)C1(C)CCN(C(=O)OC(C(F)(F)F)C(F)(F)F)CC1 (stereo not shown) [Example 139, 4-(3-(((1-(((1,1,1,3,3,3-Hexafluoropropan-2-yl)oxy)carbonyl)-4-methylpiperidin-4-yl)(methyl)amino)methyl)-5-(trifluoromethyl)phenyl)-2-methylmorpholine-2-carboxylic acid]	### (### is ≥75%)	## (## is between 25 and 75%)	### (### is ≥75%)				
CN(Cc1ccc(C(F)(F)F)cc1N1CC2CC1CN2CC(=O)O)C1(C)CCN(C(=O)OC(C(F)(F)F)C(F)(F)F)CC1 (stereo not shown) [Example 27, 2-(5-(2-(((1-(((1,1,1,3,3,3-Hexafluoropropan-2-yl)oxy)carbonyl)-4-methylpiperidin-4-yl)(methyl)amino)methyl)-5-(trifluoromethyl)phenyl)-2,5-diazabicyclo[2.2.1]heptan-2-yl)acetic acid]	### (### is ≥75%)	### (### is ≥75%)		* * *	### (### is ≥75%)	* * *	
CC(C)(C#Cc1c(Cl)cccc1CN1CCCC12CCN(C(=O)OC(C(F)(F)F)C(F)(F)F)CC2)C(=O)O [Example 1, 4-(2-Chloro-6-((8-(((1,1,1,3,3,3-hexafluoropropan-2-yl)oxy)carbonyl)-1,8-diazaspiro[4.5]decan-1-yl)methyl)phenyl)-2,2-dimethylbut-3-ynoic acid]	### (### is ≥75%)	# (# is ≤25%)			### (### is ≥75%)		
CN(Cc1ccc(C(F)(F)F)cc1N1CCC(N2CCC[C@H]2C(=O)O)CC1)C1(C)CCN(C(=O)OC(C(F)(F)F)C(F)(F)F)CC1 [Example 161, (1-(2-(((1-(((1,1,1,3,3,3-Hexafluoropropan-2-yl)oxy)carbonyl)-4-methylpiperidin-4-yl)(methyl)ainino)methyl)-5-(trifluoromethyl)phenyl)piperidin-4-yl)proline]	### (### is ≥75%)	### (### is ≥75%)			### (### is ≥75%)		< 100
CC1(N(CC(=O)O)Cc2ccc(C(F)(F)F)cc2N2CCOCC2)CCN(C(=O)OC(C(F)(F)F)C(F)(F)F)CC1 [Example 124, N-(1-(((1,1,1,3,3,3-Hexafluoropropan-2-yl)oxy)cart>onyl)-4-methylpiperidin-4-yl)-N-(2-morpholino-4-(trifluoromethyl)benzyl) glycine]	### (### is ≥75%)	# (# is ≤25%)	### (### is ≥75%)				
CN(Cc1ccc(F)cc1C1(C(=O)O)CCCC1)C1(C)CCN(C(=O)OC(C(F)(F)F)C(F)(F)F)CC1 [Example 143, 1-(5-Fluoro-2-{[(1-{[(1,1,1,3,3,3-hexafluoropropan-2-yl)oxy]carbonyl}-4-methylpiperidin-4-yl)(methyl)amino]methyl}phenyl)cyclopentane-1-carboxylic acid]	### (### is ≥75%)	# (# is ≤25%)			### (### is ≥75%)		
O=C(O)C1CCN(c2cc(CN3CCC4(CC3)CCN(C(=O)OC(C(F)(F)F)C(F)(F)F)C4)ccc2C(F)(F)F)CC1 [Example 221, 1-(5-((2-(((1,1,1,3,3,3-Hexafluoropropan-2-yl)oxy)carbonyl)-2.8-diazaspiro[4.5]decan-8-yl)methyl)-2-(trifluoromethyl)phenyl) piperidine-4-carboxylic acid]	### (### is ≥75%)	### (### is ≥75%)	### (### is ≥75%)				

Other lines, results leading:

% Inh MGLL Brain (Mouse, μM) (MGLL)	% Inh ABHD6 Brain (Mouse, μM) (ABHD6)	% Inh MGLL PFC (Human, μM) (MAGL; [1])	IC50 MGLL PC3 (Human, μM) (MAGL; PC3 cell proteome)	% Inh MGLL PC3 (Human, μM) (MAGL; PC3 cell proteome)	IC50 MGLL PFC (Human, μM) (MAGL; [1])	IC50 (MAGL; PC3 cell proteome, read-out: IC50 MGLL PC3 (Human)) [nM]	Structure (SMILES)
### (### is ≥75%)	### (### is ≥75%)	### (### is ≥75%)					O=C(O)C1CCN(c2cc(C(F)(F)F)ccc2CN2CC3(CCN(C(=O)OC(C(F)(F)F)C(F)(F)F)CC3)C2)C1 (stereo not drawn) [Example 101, l-(2-((7-(((1,1,1,3,3,3-Hexafluoropropan-2-yl)oxy)carbonyl)-2,7-diazaspiro[3,5]nonan-2-yl)methyl)-5-(trifluoromethyl)phenyl)pyrroli-dine-3-carboxylic acid]
### (### is ≥75%)	## (## is between 25 and 75%)	### (### is ≥75%)					CN(Cc1ccc(C(F)(F)F)cc1N1CCOC(C(=O)O)C1)C1(C)CCN(C(=O)OC(C(F)(F)F)C(F)(F)F)CC1 (stereo not shown) [Example 108, 4-(2-(((1-(((1,1,1,3,3,3-Hexafluoropropan-2-yl)oxy)carbonyl)-4-methylpiperidin-4-yl)(methyl)amino)methyl)-5-(trifluoromethyl)phenyl) morpholine-2-carboxylic acid]
## (## is between 25 and 75%)	### (### is ≥75%)	### (### is ≥75%)					O=C(O)c1ccc(CN2CC3(CCN(C(=O)OC(C(F)(F)F)C(F)(F)F)CC3)C2)cc1C(F)(F)F [Example 131, 4-((7-(((1,1,1,3,3,3-Hexafluoropropan-2-yl)oxy)carbonyl)-2,7-diazaspiro[3,5]nonan-2-yl)methyl)-2-(trifluoromethyl)benzoic acid]
### (### is ≥75%)	### (### is ≥75%)	### (### is ≥75%)					O=C(O)CN1CC2CC1CN2c1cc(C(F)(F)F)ccc1CN1CC2(CCN(C(=O)OC(C(F)(F)F)C(F)(F)F)CC2)C1 (stereo not shown) [Example 127, 2-(5-{2-[(7-{[(1,1,1,3,3,3-Hexafluoropropan-2-yl)oxy]carbonyl}-2,7-diazaspiro[3.5]nonan-2-yl)methyl]-5-(trifluoromethyl)phenyl}-2,5-diazabicyclo[2.2.1]heptan-2-yl)acetic acid]
### (### is ≥75%)	### (### is ≥75%)	### (### is ≥75%)	* * *				O=C(O)c1cc(CN2CC3(CCN(C(=O)OC(C(F)(F)F)C(F)(F)F)CC3)C2)ccc1C(F)(F)F [Example 21, 5-((7-(((1,1,1,3,3,3-Hexafluoropropan-2-yl)oxy)carbonyl)-2,7-diazaspiro[3.5]nonan-2-yl)methyl)-2-(trifluoromethyl)benzoic acid]
